These results are taken from publication PMC11813147, “Bioactivity assessment of peptides derived from salted jellyfish (Rhopilema hispidum) byproducts” (PLOS ONE, 2025).

Data set [1] in a line: ABTS radical scavenging assay. It is filed as biochemical. The settings on record: supplement tables. On the procedure: The ABTS radical scavenging activity of the sample was measured using a method adapted from Mirzaei et al.. The ABTS radical was generated by mixing 7 mM ABTS with 2.45 mM potassium persulfate in a 1:1 ratio and incubating the mixture in the dark at room temperature for 12 to 16 h. The resulting solution was then diluted to achieve an absorbance of 0.74 ± 0.03 at 734 nm, using deionized water for adjustments. Next, 10 μL of the sample was added to 190 μL of the ABTS solution. The mixture was incubated in the dark for 7 min, after which the absorbance was measured at 734 nm. The ABTS radical scavenging activity (%) was calculated using the following equation (2):
ABTSradicalscavengingactivity%=Acontrol–Asample/Acontrol×100 (2)
In this equation, Acontrol refers to the absorbance of the control solution (which contains all reagents except the test samples), while Asample refers to the absorbance of the mixture containing the sample and the ABTS solution. To determine the Trolox equivalent antioxidant capacity (TEAC), a Trolox standard curve was used, and the results were expressed as millimoles of Trolox equivalents per milligram of protein (mM TE/mg protein).

The subject of data set [2] is RAW 264.7. Kind of data set: Cytotoxicity assessment (MTT). The data set is classed as cell-based, Murine. The settings on record: peptide 10 µg/mL, 72 h. As for the experimental part: Murine macrophage cells (RAW 264.7; ATCC TIB-71™) were cultured in Dulbecco’s Modified Eagle’s Medium (DMEM) that was supplemented with 10% heat-inactivated fetal bovine serum (FBS) and 1% antibiotic solution. Colorectal adenocarcinoma cells (CaCo-2; ATCC HTB 37™) were cultured in Eagle’s Minimum Essential Medium (EMEM), also supplemented with 10% heat-inactivated FBS and 1% antibiotic solution. Both cell types were maintained in a humidified incubator with 5% CO2. The cell culture medium was refreshed every three days.
Cytotoxicity assessment was performed following the method described by Yang et al., with slight modifications. RAW 264.7 was seeded with 1 x 10^5 cells in a 96-well plate with an appropriate cell culture medium. After allowing the cells to attach, the medium was replaced with a fresh cell culture medium containing the peptide samples at a concentration of 10 µg/mL. The treated cells were incubated for an additional 72 h. At the designated time, fresh medium was added, which included 3-(4,5-dimethylthiazol-2-yl)-2,5-diphenyltetrazolium bromide (MTT) at a concentration of 0.5 mg/mL. After 3 h, formazan crystals were observed. The medium was then removed, and the crystals were dissolved in 100% dimethyl sulfoxide (DMSO). A microplate reader (Synergy HTX; Biotek, Multi-Mode Reader, Winooski, VT, USA) was utilized to measure the absorbance at 570 nm (measurement wavelength) and 630 nm (reference wavelength). The percentage of cell viability was calculated relative to untreated cells using the following equation (5):
Cellviability%=ODtreatment–ODblank/ODuntreated–ODblank×100 (5)
Where ODtreatment is the absorbance of the treated sample, ODuntreated is the absorbance of the untreated sample, and ODblank is the absorbance from wells without treated and untreated samples.

Consider “TDSPAPSETTD [P2, synthesized peptide identified from jellyfish fraction PUR20C]”, for which the “ABTS, mean±SD” value in data set [1] (mean ± SD, n = 3, SD) came to 2.91 TE/mg protein. The ABTS amounted to 3.11 TE/mg protein in data set [1] (replicate 1), 2.71 TE/mg protein in data set [1] (replicate 2) and 2.91 TE/mg protein in data set [1] (replicate 3). In data set [2] (relative to untreated cells, mean ± SD, n = 3, SD), the “Cell viability, mean±SD” value is given as 85.70%. Also, the Cell viability in data set [2] (replicate 1) is 83.12%; in data set [2] (replicate 2), 86.46%; in data set [2] (replicate 3), 87.52%.
